Assay results taken from ChEMBL document CHEMBL5257046, “Characterization of Serrulatane Diterpenoids in Eremophila phyllopoda subsp. phyllopoda by Triple High-Resolution α-Glucosidase/PTP1B/Radical Scavenging Profiling, NMR Spectroscopy, DFT-GIAO NMR, and Electronic Circular Dichroism Calculations” (J Nat Prod, 2023).

Target: Alpha glucosidase (Homo sapiens, UniProt O43451+P10253+P14410+Q2M2H8)
Experiment: Inhibition of alpha-glucosidase (unknown origin) using p-nitrophenyl-glycoside as substrate preincubated for 10 mins followed by substrate addition by microplate reader analysis
Assay type: protein assay

IC50 [µM] | Structure (SMILES)
28.4 | CC(C)=CCC[C@H](CO)[C@@H]1CC[C@@H](CO)c2c(O)cc(C)cc21
64.2 | CC(C)=CCC[C@H](C)[C@@H]1CC[C@@H](CO)c2c(O)cc(C)cc21

Target: T1, Tyrosine-protein phosphatase non-receptor type 1 (Homo sapiens, UniProt P18031)
T1 sequence (P18031 whole entry): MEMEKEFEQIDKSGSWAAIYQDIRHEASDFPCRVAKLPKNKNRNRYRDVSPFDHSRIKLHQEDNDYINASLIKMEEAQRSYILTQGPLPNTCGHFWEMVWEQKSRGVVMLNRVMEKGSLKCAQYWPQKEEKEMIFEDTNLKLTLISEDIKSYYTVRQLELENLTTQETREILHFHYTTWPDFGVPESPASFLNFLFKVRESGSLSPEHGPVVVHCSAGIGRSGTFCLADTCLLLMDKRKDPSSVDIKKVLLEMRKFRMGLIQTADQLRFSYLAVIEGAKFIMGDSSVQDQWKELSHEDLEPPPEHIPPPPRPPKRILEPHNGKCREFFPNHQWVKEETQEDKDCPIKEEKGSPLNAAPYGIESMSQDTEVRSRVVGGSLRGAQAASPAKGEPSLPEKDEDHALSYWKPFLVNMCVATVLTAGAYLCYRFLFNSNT
Experiment: Inhibition of PTP1B (unknown origin) using pNPP as substrate preincubated for 10 mins followed by substrate addition and measured every 30 sec for 10 mins by microplate photometer analysis

Structure (SMILES) | IC50 [µM]
CC(C)=CCC[C@H](C)[C@@H]1C[C@H](O)[C@@H](C)c2c(O)cc(C)cc21 | 80
CC(C)=CCC[C@H](C)[C@H]1c2cc(C)cc(O)c2[C@H](C)C[C@H]1O | 105
CC(C)=CCC[C@H](C)[C@@H]1CC[C@@H](CO)c2c(O)cc(C)cc21 | 20

Second part, the compound after the results:

IC50 [µM] | Structure (SMILES)
14.4 | CCCCCCCCCCCCCCCC(=O)C1=C(O)C(CO)OC1=O (configuration not stated)
16.6 | CC(C)=CCC[C@H](C)c1cccc2c(O)cc(C)cc12
